# Columns and labels:
# Format in all cases: cell-based
# Escherichia coli (032) = experiment: L-alanine-aminopeptidase activity on gelled medium, Example 3; conditions: 0.3 g/l
# Method: (§1) A gelled medium comprising 300 mg/l of L-Ala-4-AP-10-MA is prepared as follows: 46.37 g of Columbia agar are added to 1 liter of distilled water and then autoclaved, and the substrate is then introduced by means of a stock solution in DMSO. Microorganisms derived from the applicant's collection were seeded onto the medium, by delimitation as three dials, using a suspension at 0.5 McFarland. The dishes were incubated at 37° C. for 48 hours. The colonies formed were examined visually after incubation for 24 and 48 hours. The color of these colonies and also the intensity of this color were noted.
# Candida albicans (056) = experiment: as above; conditions: 0.3 g/l
# Method: as §1
# [1] = test system: Klebsiella pneumoniae (023); experiment: as above; conditions: 0.3 g/l
# Method: as §1
# [2] = test system: Enterococcus faecalis (075); experiment: as above; conditions: 0.3 g/l
# Method: as §1
# [3] = test system: Streptococcus pyogenes (067); experiment: as above; conditions: 0.3 g/l
# Method: as §1
# Listeria innocua (036) = experiment: as above; conditions: 0.3 g/l
# Method: as §1
# Proteus mirabilis (103) = experiment: as above; conditions: 0.3 g/l
# Method: as §1
# Citrobacter koseri (090) = experiment: as above; conditions: 0.3 g/l
# Method: as §1
# [4] = test system: Staphylococcus aureus (070); experiment: as above; conditions: 0.3 g/l
# Method: as §1
# [5] = test system: Staphylococcus aureus (NCTC 6571); experiment: L-alanine-aminopeptidase activity on gelled medium, Example 8; set-up: key to growth: ++ means good growth; + means moderate growth; +/− means poor growth; NG means no growth
# Method: (§2) A gelled medium comprising these three substrates is prepared as follows: 30 mg of each substrate are dissolved (heating) in 10 ml of sterile distilled water. Ten ml of this solution are then added to 90 ml of Columbia agar kept molten at 50° C.
# (§3) Various strains of microorganisms derived from the NCTC collection (National Collection of Type Cultures, Colindale, UK) were seeded onto the media thus obtained according to multipoint inoculation: for each strain, a drop of 10 μl of a suspension at 0.5 McFarland is deposited onto each of the culture media.
# (§4) The colonies formed were examined visually after incubation for 24 h and 48 h. The color and the growth of these colonies were noted.
# [6] = test system: Staphylococcus aureus (NCTC 11939); experiment: as above; set-up: key to growth: ++ means good growth; + means moderate growth; +/− means poor growth; NG means no growth
# Method: as §2, §3, §4
# [7] = test system: Salmonella poona (NCTC 4840); experiment: as above; set-up: key to growth: ++ means good growth; + means moderate growth; +/− means poor growth; NG means no growth
# Method: as §2, §3, §4
# [8] = test system: Klebsiella pneumoniae (NCTC 10896); experiment: as above; set-up: key to growth: ++ means good growth; + means moderate growth; +/− means poor growth; NG means no growth
# Method: as §2, §3, §4
# [9] = test system: Enterococcus faecalis (NCTC 755); experiment: as above; set-up: key to growth: ++ means good growth; + means moderate growth; +/− means poor growth; NG means no growth
# Method: as §2, §3, §4
# [10] = test system: Enterobacter cloacae (NCTC 11936); experiment: as above; set-up: key to growth: ++ means good growth; + means moderate growth; +/− means poor growth; NG means no growth
# Method: as §2, §3, §4
# [11] = test system: E. coli O157 (NCTC 12079); experiment: as above; set-up: key to growth: ++ means good growth; + means moderate growth; +/− means poor growth; NG means no growth
# Method: as §2, §3, §4
# [12] = test system: Enterococcus faecalis (NCTC 12697); experiment: as above; set-up: key to growth: ++ means good growth; + means moderate growth; +/− means poor growth; NG means no growth
# Method: as §2, §3, §4
# [13] = test system: Burkholderia cepacia (NCTC 10743); experiment: as above; set-up: key to growth: ++ means good growth; + means moderate growth; +/− means poor growth; NG means no growth
# Method: as §2, §3, §4
# [14] = test system: Enterococcus faecium (NCTC 7171); experiment: as above; set-up: key to growth: ++ means good growth; + means moderate growth; +/− means poor growth; NG means no growth
# Method: as §2, §3, §4
# [15] = test system: Salmonella typhimurium (NCTC 74); experiment: as above; set-up: key to growth: ++ means good growth; + means moderate growth; +/− means poor growth; NG means no growth
# Method: as §2, §3, §4
# [16] = test system: Serratia marcescens (NCTC 10211); experiment: as above; set-up: key to growth: ++ means good growth; + means moderate growth; +/− means poor growth; NG means no growth
# Method: as §2, §3, §4
# [17] = test system: Shigella sonnei (NCTC 9774); experiment: as above; set-up: key to growth: ++ means good growth; + means moderate growth; +/− means poor growth; NG means no growth
# Method: as §2, §3, §4
# [18] = test system: Listeria monocytogenes (NCTC 11994); experiment: as above; set-up: key to growth: ++ means good growth; + means moderate growth; +/− means poor growth; NG means no growth
# Method: as §2, §3, §4
# [19] = test system: Pseudomonas aeruginosa (NCTC 10662); experiment: as above; set-up: key to growth: ++ means good growth; + means moderate growth; +/− means poor growth; NG means no growth
# Method: as §2, §3, §4
smiles,measurement,setting,value
"C[C@H](N)C(=O)Nc1ccc(-c2c3ccccc3[n+](C)c3ccccc23)cc1.[Cl-] [L-Ala-4-AP-10-MA, L-alanyl-9-(4-aminophenyl)-10-methylacridinium Chloride]",Color,Escherichia coli (032); 24 H,pink-orange
same,Intensity,Escherichia coli (032); 24 H,3.5
same,Color,Escherichia coli (032); 48 h,pink-orange
same,Intensity,Escherichia coli (032); 48 h,3.5
same,Color,Candida albicans (056); 24 H,colorless
same,Color,Candida albicans (056); 48 h,colorless
same,Color,[1]; 24 H,pink-orange
same,Intensity,[1]; 24 H,3
same,Color,[1]; 48 h,pink-orange
same,Intensity,[1]; 48 h,3
same,Color,[2]; 24 H,pink
same,Intensity,[2]; 24 H,traces
same,Color,[2]; 48 h,pink-orange
same,Intensity,[2]; 48 h,0.5
same,Color,[3]; 24 H,inhibited
same,Color,[3]; 48 h,inhibited
same,Color,Listeria innocua (036); 24 H,colorless
same,Color,Listeria innocua (036); 48 h,pink-orange
same,Intensity,Listeria innocua (036); 48 h,traces
same,Color,Proteus mirabilis (103); 24 H,pink-orange
same,Intensity,Proteus mirabilis (103); 24 H,1
same,Color,Proteus mirabilis (103); 48 h,pink-orange
same,Intensity,Proteus mirabilis (103); 48 h,2
same,Color,Citrobacter koseri (090); 24 H,pink-orange
same,Intensity,Citrobacter koseri (090); 24 H,3
same,Color,Citrobacter koseri (090); 48 h,pink-orange
same,Intensity,Citrobacter koseri (090); 48 h,3
same,Color,[4]; 24 H,inhibited
same,Color,[4]; 48 h,inhibited
same,growth,[5]; 24 h,NG
same,growth,[5]; 48 h,NG
same,color of colonies,[6]; 24 h,Colorless
same,growth,[6]; 24 h,++
same,color of colonies,[6]; 48 h,Colorless
same,growth,[6]; 48 h,++
same,color of colonies,[7]; 24 h,Orange
same,growth,[7]; 24 h,++
same,color of colonies,[7]; 48 h,Orange
same,growth,[7]; 48 h,++
same,color of colonies,[8]; 24 h,Orange
same,growth,[8]; 24 h,++
same,color of colonies,[8]; 48 h,Orange
same,growth,[8]; 48 h,++
same,growth,[9]; 24 h,NG
same,growth,[9]; 48 h,NG
same,color of colonies,[10]; 24 h,Orange
same,growth,[10]; 24 h,++
same,color of colonies,[10]; 48 h,Orange
same,growth,[10]; 48 h,++
same,color of colonies,[11]; 24 h,Orange
same,growth,[11]; 24 h,++
same,color of colonies,[11]; 48 h,Orange
same,growth,[11]; 48 h,++
same,color of colonies,[12]; 24 h,Colorless
same,growth,[12]; 24 h,+/−
same,color of colonies,[12]; 48 h,Colorless
same,growth,[12]; 48 h,+/−
same,color of colonies,[13]; 24 h,Orange
same,growth,[13]; 24 h,++
same,color of colonies,[13]; 48 h,Orange
same,growth,[13]; 48 h,++
same,color of colonies,[14]; 24 h,Colorless
same,growth,[14]; 24 h,++
same,color of colonies,[14]; 48 h,Colorless
same,growth,[14]; 48 h,++
same,color of colonies,[15]; 24 h,Orange
same,growth,[15]; 24 h,++
same,color of colonies,[15]; 48 h,Orange
same,growth,[15]; 48 h,++
same,color of colonies,[16]; 24 h,Orange
same,growth,[16]; 24 h,++
same,color of colonies,[16]; 48 h,Orange
same,growth,[16]; 48 h,++
same,color of colonies,[17]; 24 h,Orange
same,growth,[17]; 24 h,++
same,color of colonies,[17]; 48 h,Orange
same,growth,[17]; 48 h,++
same,color of colonies,[18]; 24 h,Colorless
same,growth,[18]; 24 h,++
same,color of colonies,[18]; 48 h,Colorless
same,growth,[18]; 48 h,++
same,color of colonies,[19]; 24 h,Orange
same,growth,[19]; 24 h,++
same,color of colonies,[19]; 48 h,Orange
same,growth,[19]; 48 h,++

# Source: patent US7223865B2, “Chromogenic compounds, and use thereof as enzyme substrates” (Biomerieux, priority 2003, dated 2007)
